The test system of this assay is A2780 human ovarian cancer cells. In words: In vitro cell proliferation assay (CellTiter-Glo, 72 hours). The format is cell-based. The method, then:
In Vitro Cell Proliferation Assay
A2780 human ovarian and MCF7 human breast cancer cells (1250 cells/well) were seeded in white 384 well-plates in complete medium (RPMI1640 or EMEM plus 10% Fetal bovine serum) and treated with compounds dissolved in 0.1% DMSO, 24 h after seeding. The cells were incubated at 37° C. and 5% CO2 and after 72 hours the plates were processed using CellTiter-Glo assay (Promega) following the manufacturer's instruction.
CellTiter-Glo is a homogenous method based on the quantification of the ATP present, an indicator of metabolitically active cells. ATP is quantified using a system based on luciferase and D-luciferin resulting into light generation. The luminescent signal is proportional to the number of cells present in culture.
Briefly 25 microL/well reagent solution are added to each wells and after 5 minutes shacking microplates are red by a luminometer. The luminescent signal is proportional to the number of cells present in culture.
(ATP-based viability assays read luminescence as a measure of living cells.)

In turn, `NC(=O)c1nn(CCF)c2c1CCc1cnc(Nc3ccccc3OC(F)(F)F)nc1-2` [Code A45B2C1Z] showed an IC50 of 500 nM.

On to `COc1ccc(CO)cc1Nc1ncc2c(n1)-c1c(c(C(N)=O)nn1C)CC2` [Code A47B1C1Z], for which the 50% inhibitory concentration (IC50) amounted to 147 nM.

For `Cc1ccc(N2CCN(C)CC2)cc1Nc1ncc2c(n1)-c1c(c(C(=O)O)nn1C)CC2` [Code A98B1C3Z], the half-maximal inhibitory concentration (IC50) was 1300 nM. This IC50 is about 8.8-fold higher than that of the compound before.

`CN(C)CCCN1CCN(c2ccc(OC(F)(F)F)c(Nc3ncc4c(n3)-c3c(c(C(N)=O)nn3C)CC4)c2)CC1` [Code A101B1C1Z] came in with an IC50 of 520 nM.

Usually IC50 stands for the concentration at which inhibition is half-maximal. Read a low IC50 as greater potency in that assay.
